Tests used:
Assay in all cases: relative viability (nuclei count vs DMSO), 5 days (fraction); higher = more cells survive
[1] = compound: C1CNCCC1C2=CC(=NN2)C3=CC=NC=C3 + N=C(N)NC(=N)NCCc1ccccc1 [Phenformin] (partner 250 µM)
Summary of the method: (§1)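 One day after seeding in 1536-well plates, lung cancer cell lines were dosed by pin tool. Dosing was either single-drug or a fixed anchor-drug dose plus five library-drug doses (not always all listed) in √10 steps. After 5 days, nuclei were stained in one fix-and-stain step and counted on 4× images, and relative viability is the nuclei count of treated wells over that of vehicle wells, given as the median of duplicate plates.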

[2] = compound: C[C@@H](N)c1ccc(C(=O)Nc2ccnc3[nH]ccc23)cc1 + CCNC(=O)c1noc(-c2cc(C(C)C)c(O)cc2O)c1-c1ccc(CN2CCOCC2)cc1 [Luminespib] (partner 0.01 µM)
Summary of the method: as §1

[3] = compound: C[C@@H](N)c1ccc(C(=O)Nc2ccnc3[nH]ccc23)cc1 + C[C@@H](Oc1cc(-c2cnn(C3CCNCC3)c2)cnc1N)c1c(Cl)ccc(F)c1Cl [Crizotinib] (partner 1 µM)
Summary of the method: as §1

Tanzisertib + Lapatinib = compound: O[C@H]1CC[C@H](Nc2ncc3nc(Nc4c(F)cc(F)cc4F)n([C@H]4CCOC4)c3n2)CC1 [Tanzisertib] + CS(=O)(=O)CCNCc1ccc(-c2ccc3ncnc(Nc4ccc(OCc5cccc(F)c5)c(Cl)c4)c3c2)o1 [Lapatinib] (partner 2 µM)
Summary of the method: as §1

Cell Line	relative viability ([1]; first compound 0.08 µM)	relative viability ([1]; first compound 0.8 µM)	relative viability ([1]; first compound 2.53 µM)	relative viability ([1]; first compound 8 µM)	relative viability ([2]; first compound 0.04 µM)	relative viability ([2]; first compound 0.1265 µM)	relative viability ([2]; first compound 0.4 µM)	relative viability ([2]; first compound 1.265 µM)	relative viability ([2]; first compound 4 µM)	relative viability ([3]; first compound 0.04 µM)	relative viability ([3]; first compound 0.1265 µM)	relative viability ([3]; first compound 0.4 µM)	relative viability ([3]; first compound 1.265 µM)	relative viability ([3]; first compound 4 µM)	relative viability (Tanzisertib + Lapatinib; first compound 0.08 µM)	relative viability (Tanzisertib + Lapatinib; first compound 0.253 µM)	relative viability (Tanzisertib + Lapatinib; first compound 0.8 µM)	relative viability (Tanzisertib + Lapatinib; first compound 2.53 µM)	relative viability (Tanzisertib + Lapatinib; first compound 8 µM)
LXF-289	0.449	0.48	0.533	0.496	0.711	0.616	0.785	0.691	0.534	0.846	0.784	0.883	0.915	0.715	0.99	0.883	0.983	0.926	0.977
NCI-H23	0.722	0.894	0.828	0.847	0.198	0.235	0.203	–	0.21	0.589	0.571	0.619	–	0.511	1.4	0.998	0.964	1.05	0.936
NCI-H322M	0.796	0.77	0.856	0.864	1.08	1.1	1.03	–	0.742	0.881	0.944	1.09	–	1.08	0.621	0.61	0.567	0.626	0.571
NCI-H358	0.199	0.361	0.339	0.28	0.231	0.213	0.348	0.237	0.364	0.744	0.543	0.676	0.513	0.633	0.536	0.474	0.413	0.436	0.321
NCI-H441	0.634	0.947	0.831	0.753	0.451	0.342	0.326	–	0.403	0.807	0.764	0.749	0.948	0.565	–	–	–	–	–
NCI-H522	0.552	0.657	0.771	0.689	1.34	1.06	1.59	1.02	0.885	–	–	–	–	–	–	–	–	–	–
NCI-H1299	–	–	–	–	–	–	–	–	–	0.905	0.911	0.845	0.845	0.713	1.01	0.982	0.989	1.05	1.11
NCI-H1395	0.419	0.342	0.419	0.497	0.662	0.716	0.64	0.669	0.685	–	–	–	–	–	1.02	1.1	1.08	0.985	0.914
NCI-H1623	0.6	0.502	0.642	0.637	0.657	0.494	0.563	0.491	0.591	–	–	–	–	–	–	–	–	–	–
NCI-H1703	–	–	–	–	–	–	–	–	–	0.565	0.611	0.641	0.577	0.71	1.29	1.08	1.09	1.11	0.942
NCI-H1793	0.307	0.162	0.441	0.426	0.165	0.184	0.178	–	0.183	–	–	–	–	–	0.737	0.873	0.74	0.608	0.643
NCI-H2342	0.512	0.501	0.688	0.631	0.858	0.797	0.719	0.802	0.808	–	–	–	–	–	–	–	–	–	–
SW 900	0.64	0.548	0.738	0.628	0.185	0.214	0.152	0.172	0.152	–	–	–	–	–	–	–	–	–	–
